# Laboratory results: patent publication US9278915B2, “Agonists of GPR40” (CONNEXIOS LIFE SCIENCES PVT LTD, priority 2010, dated 2016)
# Target: T1, hGPR40 (Homo sapiens, UniProt O14842)
# T1 construct: expressed in transfected cells
# Experiment: Calcium flux assay to detect GPR40 activation
# Assay type: cell-based
# Details: CHO-K cells stably expressing hGPR40; Fluo-4 NW; read for 4 min at 5 s intervals
# Summary of the method: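 CHO-K cells stably expressing hGPR40 were cultured 24 h at 37 °C and loaded with Fluo-4 NW for 30 min at 37 °C plus 30 min at RT. Compounds diluted in HEPES buffer were added, and calcium fluorescence was recorded for 4 min at 5 s intervals.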
# T1 sequence (O14842 whole entry): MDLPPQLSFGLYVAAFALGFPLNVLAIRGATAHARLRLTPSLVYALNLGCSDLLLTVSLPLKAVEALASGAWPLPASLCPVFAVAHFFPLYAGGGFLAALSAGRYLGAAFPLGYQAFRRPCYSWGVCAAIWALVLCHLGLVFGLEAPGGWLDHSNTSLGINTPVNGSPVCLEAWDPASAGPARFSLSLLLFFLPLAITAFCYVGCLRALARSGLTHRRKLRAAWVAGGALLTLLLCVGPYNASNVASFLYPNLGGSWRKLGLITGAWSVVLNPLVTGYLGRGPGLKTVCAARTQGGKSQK
row,Compound,EC50 [µM]
1,"N#CC(CC(=O)O)c1ccc(OCc2ccc(OC/C(=N\OC3CCCCC3)c3ccccc3)cc2)cc1 (stereo not drawn) [Compound 111, 3-Cyano-3-(4-{[4-({(2Z)-2-[(cyclohexyloxy)imino]-2-phenylethyl}oxy)benzyl]oxy}phenyl)propanoic acid]",0.01 to 0.1
2,"CO/N=C(\COc1ccc(COc2ccc(C(CC(=O)O)c3ccccc3)cc2)cc1)c1ccccc1 (stereo not drawn) [Compound 112, 3-{4-[(4-{[(2Z)-2-(Methoxyimino)-2-phenylethyl]oxy}benzyl)oxy]phenyl}-3-phenylpropanoic acid]",> 0.1
3,"CON=C(COCC1CCC(COc2ccc(CCC(=O)O)cc2)CC1)c1ccccc1 (stereo not drawn) [Compound 113, 3-(4-{[4-({[(2E,2Z)-2-(Methoxyimino)-2-phenylethyl]oxy}methyl)cyclohexyl]methoxy}phenyl)propanoicacid]",> 0.1
4,"CO/N=C(\COc1ccc(COc2ccc(CCC(=O)O)cn2)cc1)c1ccccc1 [Compound 114, 3-{6-[(4-{[(2Z)-2-(Methoxyimino)-2-phenylethyl]oxy}benzyl)oxy]pyridin-3-yl}propanoic acid]",> 0.1
5,"CO/N=C(\COc1ccc(-c2ccc(CCC(=O)O)cc2)cc1)c1ccccc1 [Compound 115, 3-(4′-{[(2Z)-2-(Methoxyimino)-2-phenylethyl]oxy}biphenyl-4-yl)propanoic acid]",> 0.1
6,"CO/N=C(\COc1ccc(COc2ccc(OCC(=O)O)cc2)cc1)c1ccccc1 [Compound 117, {4-[(4-{[(2Z)-2-(Methoxyimino)-2-phenylethyl]oxy}benzyl)oxy]phenoxy}acetic acid]",> 0.1
7,"CO/N=C(\COc1ccc(COc2ccc(C(O)CC(=O)O)cc2)cc1)c1ccccc1 (stereo not drawn) [Compound 118, 3-Hydroxy-3-{4-[(4-{[(2Z)-2-(methoxyimino)-2-phenylethyl]oxy}benzyl)oxy]phenyl}propanoic acid]",> 0.1
8,"CO/N=C(\COc1ccc(COc2ccc(C(O)CC(=O)O)cc2)cc1)c1ccccc1 (stereo not drawn) [Compound 119, 3-Hydroxy-3-{4-[(4-{[(2Z)-2-(methoxyimino)-2-phenylethyl]oxy}benzyl)oxy]phenyl}propanoic acid]",> 0.1
9,"CO/N=C(\COc1ccc(COc2ccc(CCC(N)=O)cc2)cc1)c1ccccc1 [Compound 120, 3-{4-[(4-{[(2Z)-2-(Methoxyimino)-2-phenylethyl]oxy}benzyl)oxy]phenyl}propanamide]",> 0.1
10,"CO/N=C(\COc1ccc(COc2ccc(/C(CC(=O)O)=N\OCc3ccccc3)cc2)cc1)c1ccccc1 [Compound 122, (3E,3Z)-3-[(Benzyloxy)imino]-3-{4-[(4-{[(2Z)-2-(methoxyimino)-2-phenylethyl]oxy}benzyl)oxy]phenyl}propanoic acid]",> 0.1
11,"CO/N=C(\COc1ccc(COc2ccc(/C(CC(=O)O)=N\Oc3ccccc3)cc2)cc1)c1ccccc1 [Compound 123, (3E,3Z)-3-{4-[(4-{[(2Z)-2-(Methoxyimino)-2-phenylethyl]oxy}benzyl)oxy]phenyl}-3-(phenoxyimino) propanoic acid]",> 0.1
12,"CO/N=C(\COc1ccc(COc2ccc(/C(CC(=O)O)=N\OC3CCCCC3)cc2)cc1)c1ccccc1 [Compound 124, (3E,3Z)-3-[(Cyclohexyloxy)imino]-3-{4-[(4-{[(2Z)-2-(methoxyimino)-2-phenylethyl]oxy}benzyl)oxy]phenyl}propanoic acid]",> 0.1
